From US10174026B2, “Histone demethylase inhibitors” (CELGENE QUANTICEL RESEARCH, INC., priority 2013, dated 2019)

Target: Jarid1A (Homo sapiens (Human), UniProt P29375)
Test: Jarid1A in vitro enzyme inhibition assay (TR-FRET)
Assay type: biochemical
Settings: not given
Method: (§1) This assay determines the ability of a test compound to inhibit Jarid1A, Jarid1B, JMJD2C, and JMJD2A demethylase activity.
The enzymatic assay of Jarid1A activity is based upon Time Resolved-Fluorescence Resonance Energy Transfer (TR-FRET) detection.
The assay reaction was initiated by the following: 2 μl of the mixture of 900 nM H3K4me3-biotin labeled peptide and 6 μM alpha-ketoglutaric acid with 2 μl of 11-point serial diluted inhibitor in 3% DMSO was added to each well of plate, followed by the addition of 2 μl of 3 nM Jarid1A to initiate the reaction. The reaction mixture was incubated at room temp for 30 min, and terminated by the addition of 6 μl of 5 mM EDTA in LANCE detection buffer containing 50 nM Phycolink Streptavidin-allophycocyanin and 2 nM Europium-anti-H3K4me1-2 antibody.

Chain of Jarid1A (P29375 1-1090): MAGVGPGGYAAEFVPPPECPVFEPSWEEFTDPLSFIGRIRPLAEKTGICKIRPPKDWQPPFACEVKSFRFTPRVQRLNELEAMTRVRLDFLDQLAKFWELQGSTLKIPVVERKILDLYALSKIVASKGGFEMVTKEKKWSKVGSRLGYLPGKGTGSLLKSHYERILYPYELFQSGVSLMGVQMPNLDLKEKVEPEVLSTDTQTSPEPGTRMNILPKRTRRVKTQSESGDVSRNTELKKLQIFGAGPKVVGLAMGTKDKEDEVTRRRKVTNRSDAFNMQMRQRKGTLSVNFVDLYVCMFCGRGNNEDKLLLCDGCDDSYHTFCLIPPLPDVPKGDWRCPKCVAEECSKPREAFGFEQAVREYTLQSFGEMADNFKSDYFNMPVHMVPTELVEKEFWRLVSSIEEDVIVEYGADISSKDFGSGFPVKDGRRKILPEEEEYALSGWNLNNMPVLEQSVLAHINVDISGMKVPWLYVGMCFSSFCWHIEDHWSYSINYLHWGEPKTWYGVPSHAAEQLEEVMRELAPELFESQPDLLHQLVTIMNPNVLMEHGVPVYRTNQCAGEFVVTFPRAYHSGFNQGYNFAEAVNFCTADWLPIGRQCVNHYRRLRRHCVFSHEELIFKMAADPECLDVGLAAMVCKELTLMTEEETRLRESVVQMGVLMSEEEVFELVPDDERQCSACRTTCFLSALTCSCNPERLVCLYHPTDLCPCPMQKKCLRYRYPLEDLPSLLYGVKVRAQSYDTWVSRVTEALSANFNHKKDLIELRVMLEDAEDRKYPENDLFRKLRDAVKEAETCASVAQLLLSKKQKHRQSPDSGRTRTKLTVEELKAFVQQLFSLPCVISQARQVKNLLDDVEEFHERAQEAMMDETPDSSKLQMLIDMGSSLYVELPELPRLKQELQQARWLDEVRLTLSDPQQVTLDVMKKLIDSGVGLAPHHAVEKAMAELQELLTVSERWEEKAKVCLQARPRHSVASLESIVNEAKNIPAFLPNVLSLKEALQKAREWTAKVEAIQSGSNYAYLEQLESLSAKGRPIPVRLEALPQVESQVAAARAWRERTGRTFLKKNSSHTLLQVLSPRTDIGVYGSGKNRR

Row | Molecule | IC50 [nM]
1 | (±)-methyl 2-(1-hydroxy-2-methylpropyl)-1H-pyrrolo[3,2-b]-pyridine-7-carboxylate [Example 30] | 100 to 1000

Target: Jarid1B (Homo sapiens (Human), UniProt Q9UGL1)
Sequence (Q9UGL1 2-751): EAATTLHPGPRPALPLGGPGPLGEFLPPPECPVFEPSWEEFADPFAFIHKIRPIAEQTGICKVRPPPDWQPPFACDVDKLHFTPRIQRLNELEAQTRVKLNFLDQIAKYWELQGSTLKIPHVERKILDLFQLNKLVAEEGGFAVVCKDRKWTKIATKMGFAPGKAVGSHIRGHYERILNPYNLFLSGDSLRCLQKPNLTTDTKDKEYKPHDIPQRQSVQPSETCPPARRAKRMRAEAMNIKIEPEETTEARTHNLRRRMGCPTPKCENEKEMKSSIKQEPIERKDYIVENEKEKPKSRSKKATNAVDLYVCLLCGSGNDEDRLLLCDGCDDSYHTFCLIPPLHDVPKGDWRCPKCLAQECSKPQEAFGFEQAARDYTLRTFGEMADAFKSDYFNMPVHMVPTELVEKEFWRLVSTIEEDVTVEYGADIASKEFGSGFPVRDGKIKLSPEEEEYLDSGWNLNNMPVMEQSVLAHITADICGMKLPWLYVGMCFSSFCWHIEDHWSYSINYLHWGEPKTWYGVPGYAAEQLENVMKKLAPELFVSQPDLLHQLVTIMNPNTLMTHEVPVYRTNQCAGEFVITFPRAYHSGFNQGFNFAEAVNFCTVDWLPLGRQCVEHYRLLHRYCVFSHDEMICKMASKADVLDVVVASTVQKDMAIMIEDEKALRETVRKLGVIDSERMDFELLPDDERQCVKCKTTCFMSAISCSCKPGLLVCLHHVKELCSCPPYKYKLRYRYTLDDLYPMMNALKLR
Test: Jarid1B in vitro enzyme inhibition assay (TR-FRET)
Assay type: biochemical
Settings: not given
Method: as §1
The reaction mixture was incubated at room temp for 30 min, and terminated by the addition of 6 μl of 5 mM EDTA in LANCE detection buffer containing 50 nM Phycolink Streptavidin-allophycocyanin and 2 nM Europium-anti-H3K4me1-2 antibody.

Row | Molecule | IC50 [nM]
2 | (±)-methyl 2-(1-hydroxy-2-methylpropyl)-1H-pyrrolo[3,2-b]-pyridine-7-carboxylate [Example 30] | < 100

Target: JMJD2C (Homo sapiens (Human), UniProt Q9H3R0)
Sequence (Q9H3R0 2-372): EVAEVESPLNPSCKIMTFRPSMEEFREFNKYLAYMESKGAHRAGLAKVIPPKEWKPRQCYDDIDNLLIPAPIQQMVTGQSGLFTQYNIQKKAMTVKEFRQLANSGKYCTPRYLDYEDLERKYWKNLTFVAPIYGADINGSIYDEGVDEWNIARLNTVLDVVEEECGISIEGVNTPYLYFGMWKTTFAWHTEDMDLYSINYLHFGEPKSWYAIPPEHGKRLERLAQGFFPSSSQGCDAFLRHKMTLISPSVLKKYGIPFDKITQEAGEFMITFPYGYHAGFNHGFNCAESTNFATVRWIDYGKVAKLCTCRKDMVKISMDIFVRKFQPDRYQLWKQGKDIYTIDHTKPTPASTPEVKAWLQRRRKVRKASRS
Test: JMJD2C in vitro enzyme inhibition assay (TR-FRET)
Assay type: biochemical
Settings: not given
Method: as §1
Reaction product was determined quantitatively by TR-FRET after the addition of detection reagent Phycolink Streptavidin-allophycocyanin (Prozyme) and Europium-anti-di-methylated histone H3 lysine 9 (H3K9me2) antibody (PerkinElmer) in the presence of 5 mM EDTA in LANCE detection buffer (PerkinElmer) at a final concentration of 50 nM and 1 nM, respectively.

Row | Molecule | IC50 [nM]
3 | (±)-methyl 2-(1-hydroxy-2-methylpropyl)-1H-pyrrolo[3,2-b]-pyridine-7-carboxylate [Example 30] | < 100

Test system: KYSE-150 cell line
Test: In vitro cell-based assay, KYSE-150 cell line: BrdU cell proliferation ELISA
Settings: Homo sapiens; KYSE-150 cells, 168 hr, BrdU incorporation
Method: The primary cellular assay for JMJD2C inhibition is an assay which measures cellular proliferation via Bromodeoxyuridine (BrdU) incorporation after 168 hr of compound incubation. This assay is a quantitative ELISA assay measuring DNA incorporation of BrdU during S-phase as a direct readout of cellular proliferation. The KYSE-150 cell line is a JMJD2C gene amplified cell line.
This is a colorimetric immunoassay for the quantification of cell proliferation. Cells treated for 168 hr with test compounds are assayed for their ability to go through S-phase as a measure of their proliferative potential.
The human KYSE-150 (SMAD4 mut, TP53 mut) esophageal carcinoma cell line was seeded at 2,000 cells/well on a 96-well tissue culture treated plate. After an overnight incubation, cells were treated with a test compound in an 11 point dilution series with final concentrations ranging from 100 μM to 2 nM. Cells were then incubated in the presence of compound for 168 hr. After compound incubation, the cells were assayed using a BrdU Cell Proliferation ELISA (Roche). The cells were first incubated with BrdU labeling reagent for 2 hr. After 2 hr, these BrdU incorporated cells were fixed and denatured, probed with an anti-BrdU-Peroxidase antibody for 1.5 hr and washed. Finally, a tetramethylbenzidine peroxidase substrate was added to each well for 15 min followed by H2SO4 stop solution. The plate is read at 450 nm, and the raw optical density data is transferred into XLFit (IDBS) for IC50 calculation using the formula: fit=(D+((Vmax*(x^n))/((x^n)+(Km^n))))

Row | Molecule | IC50 [nM]
4 | COC(=O)c1ccnc2cc(Cc3ccc(F)c(F)c3)[nH]c12 [Example 125, methyl 2-(3,4-difluorobenzyl)-1H-pyrrolo[3,2-b]pyridine-7-carboxylate] | 1000 to 10000
5 | COC(=O)c1ccnc2cc(Cc3ccc(Cl)c(OC)c3)[nH]c12 [Example 127, methyl 2-(4-chloro-3-methoxybenzyl)-1H-pyrrolo-[3,2-b]-pyridine-7-carboxylate] | < 100
6 | COC(=O)c1ccnc2cc(Cc3ccc(Cl)c(Cl)c3)[nH]c12 [Example 129, methyl 2-(3,4-dichlorobenzyl)-1H-pyrrolo[3,2-b]pyridine-7-carboxylate] | < 100
7 | COC(=O)c1ccnc2cc(Cc3cc(F)c(Cl)c(Cl)c3)[nH]c12 [Example 131, methyl 2-(3,4-dichloro-5-fluorobenzyl)-1H-pyrrolo-[3,2-b]pyridine-7-carboxylate] | < 100
8 | COC(=O)c1ccnc2cc(Cc3ccc(Cl)c(C)c3)[nH]c12 [Example 133, methyl-2-(4-chloro-3-methylbenzyl)-1H-pyrrolo-[3,2-b]pyridine-7-carboxylate] | 100 to 1000
9 | COC(=O)c1ccnc2cc(Cc3ccc(Cl)c(C(F)(F)F)c3)[nH]c12 [Example 135, methyl 2-[4-chloro-3-(trifluoromethyl)benzyl]-1H-pyrrolo[3,2-b]pyridine-7-carboxylate] | < 100
10 | COC(=O)c1ccnc2cc(Cc3ccc(Cl)c(OCC4CC4)c3)[nH]c12 [Example 137, methyl 2-[4-chloro-3-(cyclo-propylmethoxy)benzyl]-1H-pyrrolo[3,2-b]pyridine-7-carboxylate] | < 100
11 | COC(=O)c1ccnc2cc(Cc3ccc(Cl)c(OCC(F)(F)F)c3)[nH]c12 [Example 139, methyl-2-[4-chloro-3-(2,2,2-trifluoroethoxy)benzyl]-1H-pyrrolo[3,2-b]pyridine-7-carboxylate] | < 100
12 | COC(=O)c1ccnc2cc(Cc3ccc(Cl)c(OC(F)(F)F)c3)[nH]c12 [Example 141, methyl-2-[4-chloro-3-(trifluoromethoxy)benzyl]-1H-pyrrolo[3,2-b]pyridine-7-carboxylate] | < 100
13 | CNC(=O)c1ccnc2cc(Cc3ccc(Cl)cc3)[nH]c12 [Example 143, 2-[4-chloro-benzyl]-N-methyl-1H-pyrrolo[3,2-b]pyridine-7-carboxamide] | 100 to 1000
14 | CNC(=O)c1ccnc2cc(Cc3ccc(Cl)c(OC(F)(F)F)c3)[nH]c12 [Example 144, 2-[4-chloro-3-(trifluoro-methoxy)benzyl]-N-methyl-1H-pyrrolo-[3,2-b]pyridine-7-carboxamide] | < 100
